Test results as given in patent publication US20230064307A1, “Pharmaceutical composition to destabilize abnormal methylation enzymes and use thereof” (priority 2021, published 2023).
Where two headings read alike, the source gives them in different places.

Tests used:
cells with abnormal MEs [1] = experiment: Differentiation helper inducer (DHI) potency, RI0.5 (reductive index); type: cell-based
Source text: DHI was our invention, which was the term we created. DHls are inhibitors of individual enzymes of MEs. Rl0.5 was the method we developed for the measurement of potency as DHI [67].

Water solubility = type: physicochemical
cells with abnormal MEs [2] = experiment: Differentiation inducer (DI) activity, ED25/ED50/ED75; type: cell-based
MAT = target: T1, MAT (Homo sapiens, UniProt P31153); experiment: Helping role of DHI to boost the activity of DI, in cell culture (Km, Vmax of enzyme from treated cells); type: cell-based
T1 construct: endogenous in cells
T1 sequence (P31153 whole entry): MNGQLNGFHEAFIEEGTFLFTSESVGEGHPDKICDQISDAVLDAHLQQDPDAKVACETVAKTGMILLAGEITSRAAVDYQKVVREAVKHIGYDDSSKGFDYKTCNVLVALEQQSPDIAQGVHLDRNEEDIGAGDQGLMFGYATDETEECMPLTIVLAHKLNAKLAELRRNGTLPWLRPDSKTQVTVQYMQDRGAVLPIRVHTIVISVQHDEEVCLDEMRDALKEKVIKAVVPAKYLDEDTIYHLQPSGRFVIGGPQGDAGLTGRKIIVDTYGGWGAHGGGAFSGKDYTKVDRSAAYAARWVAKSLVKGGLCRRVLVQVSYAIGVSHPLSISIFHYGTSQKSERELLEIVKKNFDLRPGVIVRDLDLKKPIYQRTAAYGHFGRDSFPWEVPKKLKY
Source text: (§1) DHI was our invention, which was the term we created. DHls are inhibitors of individual enzymes of MEs. Rl0.5 was the method we developed for the measurement of potency as DHI [67]. Inhibitors of MT and SAHH are better than inhibitors of MAT to function as DHIs.

cells with abnormal MEs [3] = experiment: Helping role of DHI to boost the activity of DI, in cell culture (% NBT+); type: cell-based
Source text: as §1

malignant brain tumors = details: in vivo; cited from earlier work
MEs (MAT-MT-SAHH) = target: T2, MEs (MAT-MT-SAHH) (Rattus norvegicus, UniProt P10760); experiment: Testosterone administration, sedimentation profiles of MEs from long-term hormone-depleted prostate (FIG. 1); type: in vivo; details: hypophysectomized rats, daily sc 1 mg for 3 days; single peak, intact ternary MEs
T2 construct: Cytosol extracts were prepared from prostates of each group; from tissue; host or cells: prostate cytosol of hypophysectomized rats
T2 sequence (P10760 1-432): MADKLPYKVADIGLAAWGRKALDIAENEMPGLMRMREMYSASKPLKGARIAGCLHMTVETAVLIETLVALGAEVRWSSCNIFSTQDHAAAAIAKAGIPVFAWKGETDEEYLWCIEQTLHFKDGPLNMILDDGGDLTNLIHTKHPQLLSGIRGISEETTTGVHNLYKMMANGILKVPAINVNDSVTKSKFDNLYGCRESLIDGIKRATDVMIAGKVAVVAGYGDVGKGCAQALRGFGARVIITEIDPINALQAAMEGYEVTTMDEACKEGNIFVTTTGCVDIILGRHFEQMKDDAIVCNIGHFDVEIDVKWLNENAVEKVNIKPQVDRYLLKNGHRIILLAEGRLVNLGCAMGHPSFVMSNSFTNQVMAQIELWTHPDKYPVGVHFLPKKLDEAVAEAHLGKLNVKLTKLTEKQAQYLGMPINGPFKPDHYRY
Procedure: Ten weeks after hypophysectomy, rats were divided into two groups. One group (b) received daily sc injection of I mg testosterone propionate dissolved in 0.25 ml of sesame oil for 3 days. The other group (a) was control without treatment. Cytosol extracts were prepared from prostates of each group with 5 volume of extraction buffer 0.05 M Tris HCl, pH 7.5, 50 mM KCl, 0.5 mM MgCl2. 0.1 ml of cytosol extracts were layered onto 5-20% linear sucrose density gradient for sedimentation analyses.

[4] = potency as DHI, RI0.5 is equivalent to ED25 of DI

For CC(=O)[C@H]1CC[C@H]2[C@@H]3CC=C4C[C@@H](O)CC[C@]4(C)[C@H]3CC[C@]12C [Pregnenolone], the RI0.5 (cells with abnormal MEs [1]; [4]) was 7.16 µM and the water solubility (Water solubility) was “not good”.
With COc1cc(/C=C/C(=O)CC(=O)/C=C/c2ccc(O)c(OC)c2)ccc1O [Curcumin] the water solubility (Water solubility) was “not good”.
In the case of CCCCC/C=C\C/C=C\C/C=C\C/C=C\CCCC(=O)O [AA, arachidonic acid], the ED25 (cells with abnormal MEs [2]) is reported as 24.0 µM.
CCCCC(C)(C)[C@H](O)/C=C/[C@H]1[C@H](O)CC(=O)[C@@H]1C/C=C\CCCC(=O)O [16, 16-dimethylPGE2, 16,16-dimethylprosglandin E2] showed an ED25 (cells with abnormal MEs [2]) of 10.8 µM and an ED75 (cells with abnormal MEs [2]) of 30.1 µM.
Tetradecanoyl phorbol acetate [TPA] showed an ED25 (cells with abnormal MEs [2]) of 0.00017 µM and an ED75 (cells with abnormal MEs [2]) of 0.00036 µM.
C/C=C1\C(=O)C[C@H]2[C@@H]3CCC4=CC(=O)CC[C@]4(C)[C@H]3CC[C@]12C [Gugulsterone] gave an RI0.5 (cells with abnormal MEs [1]; [4]) of 1.59 µM.
For O=C(O[C@@H]1Cc2c(O)cc(O)cc2O[C@@H]1c1cc(O)c(O)c(O)c1)c1cc(O)c(O)c(O)c1 [Epigallocatechin gallate], the RI0.5 (cells with abnormal MEs [1]; [4]) was 0.62 µM.
In the case of CC[C@H](CC[C@@H](C)[C@H]1CC[C@H]2[C@@H]3CC=C4C[C@@H](O)CC[C@]4(C)[C@H]3CC[C@]12C)C(C)C [ß-sitoisterol], the RI0.5 (cells with abnormal MEs [1]; [4]) is reported as 1.72 µM.
[Cl-].[Cl-].[Co+2] [CoCl2] showed an RI0.5 (cells with abnormal MEs [1]) of 0.62 µM.
With CCCCC[C@H](O)/C=C/[C@H]1[C@H](O)CC(=O)[C@@H]1C/C=C\CCCC(=O)O [PGE2, prostaglandin E2] the ED25 (cells with abnormal MEs [2]) was 20.6 µM and the ED75 (cells with abnormal MEs [2]) was 46.5 µM.
For O=C(O)Cc1ccccc1 [PA, phenylacetate], the Km (MAT; in cell culture, PA, 4 mM) was 20.3 µM, the Vmax (% of control) at 4000 µM (MAT; read-out: Vmax (% of control)) was 88% and the “% NBT+” value (cells with abnormal MEs [3]; PA, 4 mM) was 7%.
With O=[Se](O)O [Selenite] the RI0.5 (cells with abnormal MEs [1]; [4]) was 19.7 µM.
For CN(C)C=O [DMFA, dimethylformamide], the Km (MAT; in cell culture, DMFA, 0.3%) was 16.4 µM, the “Vmax (% of control)” value (MAT; in cell culture, DMFA, 0.3%) was 78 % of control and the “% NBT+” value (cells with abnormal MEs [3]; DMFA, 0.3%) was 14%.
For Phenylbutyric acid, the RI0.5 (cells with abnormal MEs [1]; [4]) is given as 970 µM and the “response of malignant brain tumors” value (malignant brain tumors) is given as “responded very well”.
Molecule O=[As]O[As]=O (stereo not shown) [AS2O3] has an RI0.5 (cells with abnormal MEs [1]; [4]) of 0.28 µM.
Molecule CC1=C(/C=C/C(C)=C/C=C/C(C)=C/C(=O)O)C(C)(C)CCC1 [ATRA, all-trans retinoic acid] has an ED25 (cells with abnormal MEs [2]) of 0.18 µM and an ED75 (cells with abnormal MEs [2]) of 0.75 µM.
Molecule COc1cc2c(cc1O)C[C@H]1c3c(cc(O)c(OC)c3-2)CCN1C [Boldine] has an ED25 (cells with abnormal MEs [2]) of 60.1 µM and an ED75 (cells with abnormal MEs [2]) of 94.2 µM.
In the case of CCC(=O)O[C@H]1CC[C@H]2[C@@H]3CCC4=CC(=O)CC[C@]4(C)[C@H]3CC[C@]12C [testosterone propionate], the “sedimentation of MEs (MAT, MT, SAHH) of prostate cytosol” value (MEs (MAT-MT-SAHH)) is reported as 8 S.
Molecule C=C1CC[C@H](O)C/C1=C/C=C1\CCC[C@]2(C)[C@@H]([C@H](C)CCCC(C)C)CC[C@@H]12 [Vitamin D3] has an RI0.5 (cells with abnormal MEs [1]; [4]) of 0.61 µM.
CCCCC1C(=O)CC[C@H]2[C@@H]1CC(=O)[C@@H]2C/C=C\CCCC(=O)O (stereo partly shown) [BicycloPGE2, bicycloprostaglandin E2] showed an ED25 (cells with abnormal MEs [2]) of 21.0 µM.
With CC1=C(/C=C/C(C)=C/C=C/C(C)=C/C(=O)O)C(C)(C)CCC1 [RA, retinoic acid] the Km (MAT; in cell culture, RA, 0.15 µM, read-out: Km) was 17.5 µM, the remaining activity at 0.15 µM (MAT; in cell culture, RA, 0.15 µM, read-out: Vmax (% of control)) was 60% and the “% NBT+” value (cells with abnormal MEs [3]; RA, 0.15 µM) was 16%.
CCCCC[C@H](O)/C=C/[C@H]1C(=O)C=C[C@@H]1C/C=C\CCCC(=O)O [PGJ2, prostaglandin J2] gave an ED25 (cells with abnormal MEs [2]) of 7.9 µM and an ED75 (cells with abnormal MEs [2]) of 20.5 µM.
Cc1ccc(Nc2nccc(N(C)c3ccc4c(C)n(C)nc4c3)n2)cc1S(N)(=O)=O.Cl [Votrient] gave an RI0.5 (cells with abnormal MEs [1]; [4]) of 10.1 µM.
With C/C(=C\C(=O)Nc1ccccc1C(=O)O)c1ccc2ccccc2c1 [BIBR1532] the ED25 (cells with abnormal MEs [2]) was 32.3 µM and the ED75 (cells with abnormal MEs [2]) was 55.1 µM.
C=CC1=C(C)C(=O)N=C1C=c1[nH]c(=Cc2[nH]c(O)c(C)c2CCC(=O)O)c(CCC(=O)O)c1C [Uroerythrin] showed an RI0.5 (cells with abnormal MEs [1]; [4]) of 1.75 µM.
